{"source": "patent US20070265281A1", "about": "“Organic Compounds and Their Uses” (priority 2006, published 2007)", "origin": "cited, not measured here", "system": "HCV", "settings": "ribavirin alone"}
{"compound": "NC(=O)c1ncn([C@@H]2O[C@H](CO)[C@@H](O)[C@H]2O)n1", "note": "[Ribavirin, 1-β-D-ribofuranosyl-1-1,2,4-triazole-3-caroxamide]", "values": [{"measurement": "serum levels of HCV-RNA", "setting": "patients", "result": "does not lower"}, {"measurement": "patients in whom serum amino transferase levels are reduced to normal", "result": 40, "unit": "%"}]}
